In US20160311826A1, “SGC STIMULATORS” (IRONWOOD PHARMACEUTICALS, INC., priority 2013, published 2016):
Where two headings read alike, the source gives them in different places. Each block holds one compound with its values, some of them ahead of it.

What was measured:
[1] = tested on: lambs with acute pulmonary hypertension; details: cited from earlier work; for effect on mean arterial pressure / pulmonary vasodilation / transpulmonary cGMP release: inhaled microparticles with excipients, awake lambs, U-46619 infusion; for systemic arterial oxygenation: inhaled microparticles
[2] = target: T1, soluble guanylate cyclase (sGC) (Homo sapiens, UniProt Q02108+Q02153); assay: sGC-HEK-cGMP assay with LC/MS detection; type: cell-based; details: HEK293 cells, 10 μM DETA-NONOate; concentration eliciting 50% of high control response (30 μM Compound Y); read-out: sGC_HEK_LC MS EC50 Abs
T1 construct: endogenously expressing soluble guanylate cyclase (sGC); endogenous in cells; host or cells: HEK293
T1 sequence (Q02153 1-619): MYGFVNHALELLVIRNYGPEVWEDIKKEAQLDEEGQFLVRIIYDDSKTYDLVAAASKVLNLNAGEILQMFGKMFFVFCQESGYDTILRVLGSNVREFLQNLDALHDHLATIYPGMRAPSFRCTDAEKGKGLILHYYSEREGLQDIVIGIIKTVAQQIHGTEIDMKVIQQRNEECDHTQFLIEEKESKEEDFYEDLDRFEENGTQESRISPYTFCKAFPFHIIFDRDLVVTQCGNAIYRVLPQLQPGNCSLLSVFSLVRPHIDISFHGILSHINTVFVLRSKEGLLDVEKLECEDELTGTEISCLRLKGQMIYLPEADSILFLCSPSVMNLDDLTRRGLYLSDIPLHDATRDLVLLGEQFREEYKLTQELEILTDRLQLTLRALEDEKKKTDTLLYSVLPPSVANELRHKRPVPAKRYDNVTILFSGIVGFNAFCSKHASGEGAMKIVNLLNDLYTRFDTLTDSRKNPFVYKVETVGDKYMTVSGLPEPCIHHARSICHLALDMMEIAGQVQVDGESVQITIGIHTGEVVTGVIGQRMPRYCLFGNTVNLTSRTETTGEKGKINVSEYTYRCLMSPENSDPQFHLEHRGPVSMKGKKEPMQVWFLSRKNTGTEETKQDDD
T1 sequence (Q02108 1-690): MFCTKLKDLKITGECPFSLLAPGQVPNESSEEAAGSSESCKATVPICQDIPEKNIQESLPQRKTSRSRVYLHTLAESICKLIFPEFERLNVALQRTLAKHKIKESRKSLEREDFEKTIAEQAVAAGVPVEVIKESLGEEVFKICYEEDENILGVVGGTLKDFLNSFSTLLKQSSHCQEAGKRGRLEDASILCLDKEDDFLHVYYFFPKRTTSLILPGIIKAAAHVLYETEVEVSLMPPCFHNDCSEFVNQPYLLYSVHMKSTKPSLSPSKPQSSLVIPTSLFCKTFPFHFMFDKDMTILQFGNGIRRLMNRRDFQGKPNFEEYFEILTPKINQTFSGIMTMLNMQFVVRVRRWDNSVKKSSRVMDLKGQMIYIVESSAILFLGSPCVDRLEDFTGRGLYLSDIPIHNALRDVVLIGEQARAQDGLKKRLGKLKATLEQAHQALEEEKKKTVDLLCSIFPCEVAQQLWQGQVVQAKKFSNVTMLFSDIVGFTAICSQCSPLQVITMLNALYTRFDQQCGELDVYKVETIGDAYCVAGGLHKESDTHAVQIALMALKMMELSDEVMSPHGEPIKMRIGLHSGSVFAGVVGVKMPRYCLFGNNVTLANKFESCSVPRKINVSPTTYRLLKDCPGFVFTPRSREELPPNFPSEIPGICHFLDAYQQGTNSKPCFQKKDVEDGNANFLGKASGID
Description: Human embryonic kidney cells (HEK293), endogenously expressing soluble guanylate cyclase (sGC), were used to evaluate the activity of test compounds. Compounds stimulating the sGC enzyme should cause an increase in the intracellular concentration of cGMP. HEK 293 cells were seeded in Dulbecco's Modification of Eagle's Medium supplemented with fetal bovine serum (10% final) and penicillin (100 U/mL)/streptomycin (100 ug/mL) in a […] at a density of 1.5×10^4 cells/well in a poly-D-lysine coated 384 well flat bottom plate. Cells were incubated overnight at 37° C. in a humidified chamber with 5% CO2. Medium was aspirated and cells were washed with 1× Hank's Buffered Saline Salt Solution […]. Cells were then incubated for 15 minutes at 37° C. with 50 μL of a 0.5 mM 3-isobutyl-1-methylxanthine (IBMX) solution. Test article and Diethylenetriamine NONOate (DETA-NONOate) solutions (x μM concentration for test article solution and 10 μM concentration for DETA-NONOate solution; wherein x is one of the following concentrations);
were then added to the assay mixture and the resulting mixture incubated at 37° C. for 20 minutes. After the 20 minute incubation, the assay mixture was aspirated and 10% acetic acid containing 150 ng/mL+3-cGMP (internal standard for LCMS) (50 μL) was added to the cells. The plate was incubated at 4° C. for 30 minutes in the acetic acid solution to stop the reaction and lyse the cells. The plates were then centrifuged at 1,000g for 3 minutes at 4° C. and the supernatant transferred to a clean reaction plate for LCMS analysis.
cGMP concentrations were determined from each sample using the LCMS conditions below (Table 2) and calculated standard curve. The standard curve was prepared in 10% acetic acid with 150 ng/mL+3cGMP (isotopically labelled cGMP with a weight 3 units higher than wild type) with the following final concentrations of cGMP in ng/mL: 1, 5, 10, 50, 100, 250, 500, 1000, 2000.
Data were normalized to a high control using the following equation: 100*(Sample−Low Control)/(High Control−Low Control), where the low control is the average of 16 samples treated with 1% DMSO, and the high control is the average of 16 samples treated with 30 μM of Compound Y depicted below. Data were fit using a 4-parameter fit (log(agonist) vs. response−variable slope) using GraphPad Prism Software v.5. n=2 for all compounds. The Absolute EC50 was interpolated from the curve fit and is defined as the concentration at which a given compound elicits 50% of the high control response. Compounds failing to elicit a minimum response of 50% are reported as >30 μM. For compounds run in duplicate or n higher than 2, the result herein given is the geometric mean of the several results obtained.
Code definitions for the whole cell HEK assay values, expressed as Absolute EC50 which is defined as the concentration at which a given compound elicits 50% of the high control response (Compound Y). Compounds failing to elicit a minimum response of 50% are reported as *.

[3] = target: T2, human recombinant soluble guanylate cyclase enzyme α1β1 (h sGC) (Homo sapiens, UniProt Q02108+Q02153); assay: Purified human recombinant sGC α1β1 enzyme assay in the presence of DETA-NONOate (cGMP HTRF); type: biochemical
T2 construct: purchased Enzo Life Sciences ALX-201-177
T2 sequence (Q02108 1-690): T1 sequence (Q02108 1-690)
T2 sequence (Q02153 1-619): T1 sequence (Q02153 1-619)
Description: Purified human recombinant soluble guanylate cyclase enzyme α1β1 (h sGC) obtained from Enzo Life Sciences (P/N: ALX-201-177) was used to evaluate the activity of test compounds. The assay reactions contained 0.1 M Tris (pH 8.0), 0.5 mg/mL BSA, 2 mM DTT, 4 mM MgCl2, 30 uM DETA NONOate (Enzo Life Science P/N: ALX-430-014), and 12.5 ng/ml human soluble guanylate cyclase enzyme. […] Guanosine 5′-triphosphate (Sigma-Aldrich P/N: G8877) was added to a final concentration of 300 μM and enzyme reactions were incubated (100 μL, 384-well plate format) at 37° C. for 20 minutes. The controls contained 3% DMSO (low control), or 30 uM of Compound Y (high control). After the 20 minute incubation, the reaction was stopped with the addition of 100 μL of ice cold 20% acetic acid.
cGMP concentrations in all samples were determined using the cGMP HTRF (Cisbio P/N: 62GM2PEC) assay per manufacturer's instructions. A cGMP standard curve was fit using a 4-parameter fit (log(inhibitor) vs. response—variable slope) using GraphPad Prism Software v.6. Samples were diluted appropriately to ensure that values fell within the linear range of the standard curve. The EC50 was interpolated from the curve fit and is defined as the concentration at which the compound elicits 50% of the maximal response of the 30 uM of Compound Y, the high control compound.

[4] = 30 uM DETA NONOate, concentration eliciting 50% of high control response (30 uM Compound Y), read-out: sGC_Enz_HTRF_a1b1 EC50 Abs

SMILES: Nc1nc(-c2nn(Cc3ccccc3F)c3ncccc23)ncc1C1CC1 [BAY 41-2272]
effect on mean arterial pressure [1]: without significant effect on mean arterial pressure
pulmonary vasodilation [1]: dose dependent pulmonary vasodilation
transpulmonary cGMP release [1]: increased transpulmonary cGMP release

SMILES: Nc1nc(-c2nn(Cc3ccccc3F)c3ncccc23)nc(N)c1N1CCOCC1 [BAY 41-8543]
magnitude and duration of pulmonary vasodilation induced by iNO ([1]; after inhaling the microparticles): augmented
effect on mean arterial pressure [1]: without significant effect on mean arterial pressure
pulmonary vasodilation [1]: dose dependent pulmonary vasodilation
transpulmonary cGMP release [1]: increased transpulmonary cGMP release
systemic arterial oxygenation [1]: increased systemic arterial oxygenation

SMILES: O=C(O)CCCCN(CCc1ccccc1OCc1ccc(CCc2ccccc2)cc1)Cc1ccc(C(=O)O)cc1 [BAY 58-2667]
pulmonary vasodilation and transpulmonary cGMP release after treatment with ODQ ([1]; inhaled microparticles after ODQ): greatly enhanced
effect on mean arterial pressure [1]: without significant effect on mean arterial pressure
pulmonary vasodilation [1]: dose dependent pulmonary vasodilation
transpulmonary cGMP release [1]: increased transpulmonary cGMP release
systemic arterial oxygenation [1]: increased systemic arterial oxygenation

EC50 [2]: < 0.1 µM
EC50 [3, 4]: < 2 µM
SMILES: CCOC(=O)C1(C)C(=O)Nc2nc(-c3cc(OC)n(Cc4ccccc4F)n3)nc(N)c21 (stereo not shown) [Compound I-1, ethyl 4-amino-2-(1-(2-fluorobenzyl)-5-methoxy-1H-pyrazol-3-yl)-5-methyl-6-oxo-6,7-dihydro-5H-pyrrolo[2,3-d]pyrimidine-5-carboxylate]

SMILES: COc1nc(-c2ncc(F)c(O)n2)nn1Cc1ccccc1F [Compound I-3]
EC50 [2]: > 30 µM
EC50 [3, 4]: > 30 µM

EC50 [3, 4]: > 5 µM
SMILES: O=c1[nH]c(-c2cc(OC(F)F)n(Cc3ccccc3F)n2)ncc1F [Compound I-4]

EC50 [3, 4]: > 5 µM
SMILES: COc1cc(-c2ncc(F)c(=O)[nH]2)nn1Cc1ccccc1F [Compound I-5]

EC50 [3, 4]: > 5 µM
SMILES: COc1cc(-c2nccc(N)n2)nn1Cc1ccccc1F [Compound I-6]

EC50 [3, 4]: > 5 µM
SMILES: COc1cc(-c2ncc(F)c(NCC(=O)O)n2)nn1Cc1ccccc1F [Compound I-9]

EC50 [3, 4]: > 30 µM
SMILES: CC1(C(N)=O)C(=O)Nc2nc(-c3nn(Cc4ccccc4F)c(=O)[nH]3)nc(N)c21 (stereo not shown) [Compound I-10]

EC50 [3, 4]: 2 to 5 µM
SMILES: COc1cc(-c2ncc(F)c(NCCO)n2)nn1Cc1ccccc1F [Compound I-13]

SMILES: COc1nc(-c2nc(N)c3c(n2)NC(=O)C3(C)C(N)=O)nn1Cc1ccccc1F (stereo not shown) [Compound I-17]
EC50 [3, 4]: > 5 µM

SMILES: Cn1c(-c2nc(N)c3c(n2)NC(=O)C3(C)C(N)=O)nn(Cc2ccccc2F)c1=O (stereo not shown) [Compound I-18]
EC50 [3, 4]: > 5 µM

EC50 [3, 4]: 2 to 5 µM
SMILES: COc1cc(-c2ncc(F)c(NCc3cc(=O)[nH]o3)n2)nn1Cc1ccccc1F [Compound I-19]

EC50 [3, 4]: < 2 µM
SMILES: COc1cc(-c2ncc(F)c(NCC(O)(C(N)=O)C(F)(F)F)n2)nn1Cc1ccccc1F (stereo not shown) [Compound I-20]

EC50 [3, 4]: > 5 µM
SMILES: CCOC(=O)C1(C)C(=O)Nc2nc(-c3nn(Cc4ccccc4F)c(=O)[nH]3)nc(N)c21 (stereo not shown) [Compound I-21]

SMILES: CCOC(=O)C1(C)C(=O)Nc2nc(-c3nn(Cc4ccccc4F)c(=O)n3C)nc(N)c21 (stereo not shown) [Compound I-29]
EC50 [3]: 2 to 5 µM

SMILES: CCOC(=O)C1(C)C(=O)Nc2nc(-c3nc(OC)n(Cc4ccccc4F)n3)nc(N)c21 (stereo not shown) [Compound I-30]
EC50 [3]: 2 to 5 µM

SMILES: COc1nc(-c2nc(N)c3c(n2)NC(=O)C3(C)C(=O)NC2CC2)nn1Cc1ccccc1F (stereo not shown) [Compound I-37]
EC50 [3, 4]: 2 to 5 µM

SMILES: Cn1c(-c2nc(N)c3c(n2)NC(=O)C3(C)C(=O)NC2CC2)nn(Cc2ccccc2F)c1=O (stereo not shown) [Compound I-38]
EC50 [3, 4]: < 2 µM

EC50 [2]: < 0.1 µM
SMILES: COc1cc(-c2nc(N)c3c(n2)NC(=O)C3(C)C(=O)NC2CC2)nn1Cc1ccccc1F (stereo not shown) [Compound I-44]

EC50 [3, 4]: > 5 µM
SMILES: CC1(C(N)=O)C(=O)Nc2nc(-c3cc(O)n(Cc4ccccc4F)n3)nc(N)c21 (stereo not shown) [Compound I-48]

EC50 [3, 4]: > 5 µM
SMILES: Fc1cnc(-c2cc(OC(F)F)n(Cc3cccc(F)c3F)n2)nc1 [Compound I-59]

EC50 [2]: > 30 µM
SMILES: COc1cc(-c2ncc(F)c(N3CCS(=O)(=O)CC3)n2)nn1Cc1ccccc1F [Compound I-63]

EC50 [3, 4]: 2 to 5 µM
SMILES: COc1cc(-c2ncc(F)c(NCC(O)CO)n2)nn1Cc1ccccc1F (stereo not shown) [Compound I-64]

EC50 [3, 4]: 2 to 5 µM
SMILES: COc1cc(-c2ncc(F)c(N3CCC[C@H](C)[C@@H]3C(=O)O)n2)nn1Cc1ccccc1F [Compound I-70]

EC50 [2]: < 0.1 µM
SMILES: CCOC(=O)C1(C)C(=O)Nc2nc(-c3cc(OC(F)F)n(Cc4ccccc4F)n3)nc(N)c21 (stereo not shown) [Compound I-72]

SMILES: O=c1onc2cnc3ccccc3n12 [ODQ, 1H-[1,2,4]oxadiazolo[4,3-a]quinoxalin-1-one]
effect on pulmonary vasodilator effect of iNO ([1]; intravenous administration): markedly reduced the pulmonary vasodilator effect of iNO
